In PMC12295124, “Quercetin, Catechin, and Diosmin as Modulators of Haloperidol–HSA Interactions: A Biophysical and Computational Study” (International Journal of Molecular Sciences, 2025):

Molecular target: T1, human serum albumin (Homo sapiens, UniProt P02768)
T1 construct: gene ALB
Test: intrinsic Trp fluorescence quenching (excitation […] nm, […] K), double-log plot; Kb is an association constant
Format: binding
Details: read-out: Kb/dm^3 mol^-1 (converted)

T1 sequence (P02768 25-609): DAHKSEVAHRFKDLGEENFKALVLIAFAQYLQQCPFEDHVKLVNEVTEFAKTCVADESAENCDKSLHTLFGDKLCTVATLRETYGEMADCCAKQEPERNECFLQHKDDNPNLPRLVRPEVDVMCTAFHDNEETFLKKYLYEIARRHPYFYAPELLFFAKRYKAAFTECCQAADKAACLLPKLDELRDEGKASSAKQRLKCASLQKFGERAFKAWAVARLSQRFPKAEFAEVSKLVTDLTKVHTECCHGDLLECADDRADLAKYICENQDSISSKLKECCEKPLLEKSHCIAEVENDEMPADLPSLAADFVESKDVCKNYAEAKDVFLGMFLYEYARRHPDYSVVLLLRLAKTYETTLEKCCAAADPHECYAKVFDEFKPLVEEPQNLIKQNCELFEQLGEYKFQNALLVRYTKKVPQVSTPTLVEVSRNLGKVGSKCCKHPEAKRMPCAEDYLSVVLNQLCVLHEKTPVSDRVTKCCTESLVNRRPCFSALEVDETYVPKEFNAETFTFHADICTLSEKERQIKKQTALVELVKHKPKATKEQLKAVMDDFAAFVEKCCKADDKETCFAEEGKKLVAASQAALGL

SMILES: O=C(CCCN1CCC(O)(c2ccc(Cl)cc2)CC1)c1ccc(F)cc1 [HPD, haloperidol]
- Kd: 225 µM
